Paper PMC11696576, “Next generation thiazolyl ketone inhibitors of cytosolic phospholipase A2 α for targeted cancer therapy” (Nature Communications, 2025)
Where “and” joins values, the source holds several entries; their conditions need not be identical. Equal values may be shown once. Read-outs that look alike come from different tables or passages of the source.

Legend:
Jurkat E6.1 cells = test: intracellular ROS, ROS-red staining and flow cytometry, Jurkat E6.1; assay type: cell-based, human; design: ROS Negative Cells / ROS Negative Cells (Figure S9 a) / ROS Negative Cells (Figure S9c): unit not given here; details: for ROS Negative Cells (Figure S9 a) / ROS Positive Cells (Figure S9 a): replicates; for ROS Negative Cells (Figure S9 a) / ROS Positive Cells (Figure S9 a) / ROS Negative Cells / ROS Positive Cells: listed as AVX420; for ROS Negative Cells (Figure S9c) / ROS Positive Cells (Figure S9c): rep1, rep2
Experimental: Data are the mean ± stdev of 3 biological replicates. […] Data are the mean ± stdev of 3 biological replicates.
Rather, when combined with AVX420, exogenous AA augmented cell death (Fig. 6e). […] The response occurred within 1 h, peaked at 8–12 h, and preceded the loss of cell viability (Fig. S9a, b).
After treatment, cells were stained with cellular ROS Assay Kit (Cat. No. ab186029; Abcam, Cambridge, United Kingdom) following the manufacturer’s instructions, and ROS-positive cells were quantified by flow cytometry using either the NovoCyte flow cytometer, and Novoexpress Software v1.5.0 from Agilent Technologies (Santa Clara, USA) or the CytoFLEX flow cytometer and CytExpert analysis software v 2.5 from Beckman Coulter (California, United States). An example showing the gating strategy used to assess ROS-Red staining is found in Fig. S9d.

HL-60 cells = test: cell viability, resazurin assay, HL-60; assay type: cell-based, human; details: for cell viability relative to 0 µM = 100 (Figure S7b): listed as AVX420
Source text: Bjørn Tore Gjertsen (University of Bergen, Norway). […] The cell lines were not authenticated.
Figure S7. Sensitivity of cell lines derived from hematological malignancies. a. cell viability expressed as relative light units ( RLU) is plotted for all cell lines in the screen that were de-rived from hematological malignancies. b. corresponding IC50 values calculated by non-linear regression analysis. c. Cell viability assessed by resazurin assays in MV-4-11 and HL-60 cells.
Data were normalized to the vehicle-treated control (100%) and are the mean of 4 biological replicates ±stdev (MV-4-11) and 5 biological replicates ±stdev (HL-60), Non-linear regres- […]

isolated human PBMCs = test: eicosanoid release from A23187-stimulated PBMCs (ELISA); assay type: cell-based; design: 6-Keto PGF1a / 12-HETE: unit not given here; details: for LTB4 level, PBMCs / PGE2 level, PBMCs / TxB2 level, PBMCs: A23187, individual replicate; for 6-Keto PGF1a: A23187 stimulated; for IC50: Homo sapiens, PBMC, 0.25 h, 30 µM A23187 15 min
Experimental: In PBMCs, the calcium ionophore A23187 stimulated the release of PGE2, TXB2, LTB4, 6-keto prostaglandin F1α (PGF1α), and 12-HETE.
PBMCs were isolated from buffy coats using Lymphoprep as described by the manufacturer ([…] Technologies, Vancouver, Canada). Red blood cells were lysed and removed using RBC lysis buffer (Roche, Basel, Switzerland) and the remaining cells were resuspended in 10 mL of RPMI-1640 supplemented with 5% FBS. The TC20 automated cell counter (BIO-RAD, Hercules, California, USA) was used to count the number of cells and check the viability by staining with trypan blue (0.4%) (NanoEnTek, Waltham, MA, USA). For experiments, 5 × 10^5 cells were seeded in 0.5 mL in 24 well plates with RPMI medium supplemented with 5% FBS, 0.3 mg/mL glutamine, and 0.1 mg/mL gentamicin. Cells were preincubated with inhibitors for 2 h before incubating with 30 µM Ca^2+ ionophore A23187 for 15 min to activate cPLA2α. After incubation, the supernatant was obtained by centrifugation at 5992 × g for 10 min at 4° and stored at −80 °C until assayed for PGE2, LTB4, TxB2, 6-Keto PGF1α, and 12S-HETE using enzyme-linked immunosorbent assays (ELISAs) (Cayman #514435, Cayman #10009292, Cayman #501020, Cayman #15210, and Enzo Lifesciences #ADI-900-050). After an overnight hybridization, the enzymatic conversion of substrate was read at OD420 nm using a Cytation 5 multimode platereader (Biotek Instruments, Winooski, VT, USA). Standard curves fit using 4-parameter logistic regression in myassays.com were used to calculate eicosanoid concentrations.

CCCCCCCOc1ccc(OCC(=O)c2nc(C(=O)OC)cs2)cc1 [GK420]
ROS Negative Cells (Figure S9 a) (Jurkat E6.1 cells; 1h): 68 and 69 and 77 and 81 | ROS Positive Cells (Figure S9 a) (Jurkat E6.1 cells; 1h): 31 and 23 and 19 and 32 | ROS Negative Cells (Figure S9 a) (Jurkat E6.1 cells; 2h): 46 (2×) and 47 (2×) and 51 and 54 and 50 and 48 | ROS Positive Cells (Figure S9 a) (Jurkat E6.1 cells; 2h): 53 (2×) and 49 and 46 and 50 and 54 (2×) and 52 | ROS Negative Cells (Figure S9 a) (Jurkat E6.1 cells; 4h): 33 (2×) and 32 and 37 and 30 and 29 and 34 (2×) | ROS Positive Cells (Figure S9 a) (Jurkat E6.1 cells; 4h): 67 (2×) and 68 and 63 and 70 and 71 and 66 (2×) | ROS Negative Cells (Figure S9 a) (Jurkat E6.1 cells; 8h): 26 and 27 | ROS Positive Cells (Figure S9 a) (Jurkat E6.1 cells; 8h): 73 and 74 | ROS Negative Cells (Figure S9 a) (Jurkat E6.1 cells; 12h): 18 and 19 and 21 and 16 | ROS Positive Cells (Figure S9 a) (Jurkat E6.1 cells; 12h): 81 and 79 and 84 and 82 | ROS Negative Cells (Figure S9 a) (Jurkat E6.1 cells; 16h): 21 and 22 and 18 (2×) and 17 and 19 | ROS Positive Cells (Figure S9 a) (Jurkat E6.1 cells; 16h): 78 and 82 (2×) and 83 and 81 and 79 | ROS Negative Cells (Figure S9 a) (Jurkat E6.1 cells; 20h): 14 and 13 and 15 | ROS Positive Cells (Figure S9 a) (Jurkat E6.1 cells; 20h): 87 and 85 and 86 | ROS Negative Cells (Figure S9 a) (Jurkat E6.1 cells; 24h): 13 and 15 and 16 | ROS Positive Cells (Figure S9 a) (Jurkat E6.1 cells; 24h): 85 and 84 and 87 | ROS Negative Cells (Figure S9c) (Jurkat E6.1 cells; AVX420 0.5 µM + AA 20 µM): 80 and 83 | ROS Positive Cells (Figure S9c) (Jurkat E6.1 cells; AVX420 0.5 µM + AA 20 µM): 20 and 17 | ROS Negative Cells (Figure S9c) (Jurkat E6.1 cells; AVX420 0.5 µM + Lip 5 µM): 98 and 99 | ROS Positive Cells (Figure S9c) (Jurkat E6.1 cells; AVX420 0.5 µM + Lip 5 µM): 2 and 1 | ROS Negative Cells (Figure S9c) (Jurkat E6.1 cells; AVX420 0.5 µM): 80 and 76 | ROS Positive Cells (Figure S9c) (Jurkat E6.1 cells; AVX420 0.5 µM): 20 and 24 | ROS Negative Cells (Jurkat E6.1 cells; Jurkat E6.1, 0.25 µM): 78 and 75 and 60 and 66 | ROS Positive Cells (Jurkat E6.1 cells; Jurkat E6.1, 0.25 µM): 22 and 25 and 40 and 34 | ROS Negative Cells (Jurkat E6.1 cells; Jurkat E6.1, 0.5 µM): 46 and 45 and 51 | ROS Positive Cells (Jurkat E6.1 cells; Jurkat E6.1, 0.5 µM): 54 and 55 and 49 | ROS Negative Cells (Jurkat E6.1 cells; Jurkat E6.1, 1 µM): 19 and 21 and 30 and 22 | ROS Positive Cells (Jurkat E6.1 cells; Jurkat E6.1, 1 µM): 81 and 79 and 70 and 78 | ROS Positive Cells (Jurkat E6.1 cells; Jurkat E6.1, 2 µM): 95 and 93 and 89 and 92 | intracellular ROS (iROS) (Jurkat E6.1 cells; Jurkat E6.1, 4 h): dose-dependent increase | cell viability relative to 0 µM = 100 (Figure S7b) (HL-60 cells; HL-60, 1 µM, rep1-5): 97.3013 and 90.6778 and 115.865 and 99.353 and 90.3923 | cell viability relative to 0 µM = 100 (Figure S7b) (HL-60 cells; HL-60, 3 µM, rep1-5): 90.5903 and 85.7617 and 98.8696 and 77.2301 and 87.8872 | cell viability relative to 0 µM = 100 (Figure S7b) (HL-60 cells; HL-60, 5 µM, rep1-5): 71.3359 and 44.5692 and 65.87 and 61.5884 and 62.96 | cell viability relative to 0 µM = 100 (Figure S7b) (HL-60 cells; HL-60, 7 µM, rep1-5): 63.2164 and 43.3688 and 54.7108 and 42.3668 and 54.7116 | cell viability relative to 0 µM = 100 (Figure S7b) (HL-60 cells; HL-60, 10 µM, rep1-5): 36.7957 and 43.3263 and 38.5629 and 49.5907 | cell viability relative to 0 µM = 100 (Figure S7b) (HL-60 cells; HL-60, 12 µM, rep1-5): 32.4548 and 37.5058 and 42.0594 and 45.299 | cell viability relative to 0 µM = 100 (Figure S7b) (HL-60 cells; HL-60, 15 µM, rep1-5): 31.4644 and 36.8417 and 35.3195 and 49.7069 | cell viability relative to 0 µM = 100 (Figure S7b) (HL-60 cells; HL-60, 20 µM, rep1-5): 29.4668 and 34.076 and 29.9279 and 43.7902 | viability at 10 µM (HL-60 cells; Homo sapiens, HL-60, HL-60, 10 µM, rep1-5, read-out: cell viability relative to 0 µM = 100 (Figure S7b)): 49.4% | viability at 12 µM (HL-60 cells; Homo sapiens, HL-60, HL-60, 12 µM, rep1-5, read-out: cell viability relative to 0 µM = 100 (Figure S7b)): 45.2% | viability at 15 µM (HL-60 cells; Homo sapiens, HL-60, HL-60, 15 µM, rep1-5, read-out: cell viability relative to 0 µM = 100 (Figure S7b)): 42.5% | viability at 20 µM (HL-60 cells; Homo sapiens, HL-60, HL-60, 20 µM, rep1-5, read-out: cell viability relative to 0 µM = 100 (Figure S7b)): 36.3% | IC50 (HL-60 cells; Homo sapiens, HL-60, resazurin assay): 4.6 µM | LTB4 level, PBMCs (isolated human PBMCs; 0.5 µM): 429.9 pg/mL and 749.3 pg/mL and 255.6 pg/mL and 605.5 pg/mL | PGE2 level, PBMCs (isolated human PBMCs; 0.5 µM): 169.2 pg/mL and 38.5 pg/mL and 267.8 pg/mL and 309 pg/mL | TxB2 level, PBMCs (isolated human PBMCs; 0.5 µM): 8408.2 pg/mL and 1252.3 pg/mL and 13129.8 pg/mL and 13753.8 pg/mL | 6-Keto PGF1a (isolated human PBMCs; 0.5 µM): 21.6 and 26.4 | LTB4 level, PBMCs (isolated human PBMCs; 1 µM): 370.9 pg/mL and 289.7 pg/mL and 718.4 pg/mL and 239.1 pg/mL | PGE2 level, PBMCs (isolated human PBMCs; 1 µM): 247.2 pg/mL and 134.2 pg/mL and 36.8 pg/mL and 244.2 pg/mL | TxB2 level, PBMCs (isolated human PBMCs; 1 µM): 11110.6 pg/mL and 8481.1 pg/mL and 1330.2 pg/mL and 14838.7 pg/mL | 6-Keto PGF1a (isolated human PBMCs; 1 µM): 16.6 and 27.5 | LTB4 level, PBMCs (isolated human PBMCs; 2.5 µM): 144.2 pg/mL and 219 pg/mL and 387.5 pg/mL and 190 pg/mL | PGE2 level, PBMCs (isolated human PBMCs; 2.5 µM): 238.2 pg/mL and 102.2 pg/mL and 66 pg/mL and 196.8 pg/mL | TxB2 level, PBMCs (isolated human PBMCs; 2.5 µM): 7528.6 pg/mL and 7919.2 pg/mL and 1078.1 pg/mL and 10138.3 pg/mL | 6-Keto PGF1a (isolated human PBMCs; 2.5 µM): 15.1 and 17.9 | LTB4 level, PBMCs (isolated human PBMCs; 5 µM): 107.5 pg/mL and 125.8 pg/mL and 244.5 pg/mL and 111.7 pg/mL | PGE2 level, PBMCs (isolated human PBMCs; 5 µM): 149.4 pg/mL and 71.6 pg/mL and 38.8 pg/mL and 141.2 pg/mL | TxB2 level, PBMCs (isolated human PBMCs; 5 µM): 4591 pg/mL and 3235.3 pg/mL and 764.8 pg/mL and 7035.5 pg/mL | 6-Keto PGF1a (isolated human PBMCs; 5 µM): 16.9 and 21.1 | LTB4 level, PBMCs (isolated human PBMCs; 10 µM): 64.7 pg/mL and 93.8 pg/mL and 115.3 pg/mL and 64.3 pg/mL | PGE2 level, PBMCs (isolated human PBMCs; 10 µM): 129 pg/mL and 52.7 pg/mL and 30.5 pg/mL and 67 pg/mL | TxB2 level, PBMCs (isolated human PBMCs; 10 µM): 2621.7 pg/mL and 1488.5 pg/mL and 633.4 pg/mL and 3277.7 pg/mL | IC50 (isolated human PBMCs; PBMCs, read-out: IC50 LTB4 inhibition): 0.317 µM | IC50 (isolated human PBMCs; PBMCs, read-out: IC50 PGE2 inhibition): 1.1 µM | IC50 (isolated human PBMCs; PBMCs, read-out: IC50 TXB2 inhibition): 2.2 µM | effect on 6-keto PGF1α and 12-HETE (isolated human PBMCs; PBMCs, A23187, IC50 values could not be calculated): tendency to suppress
